Data on three molecules can be found in PMC8580066 (2021).

Assay [1] has as its system c-Myc (DNA, G4) TGAGGGTGGGTAGGGTGGGTAA
Put plainly: thiazole orange displacement (TO-FID). The following applies: K+ 100 mM; 10 mM Tris-HCl, pH 7.3; thiazole orange 2 μM displaced; DNA 1 μM; helicene 0-20 μM.

Assay [2] has the same test system. In words: fluorescence titration, simple binding model. The following applies: K+ 100 mM, 10 mM lithium cacodylate, pH 7.3, stoichiometry fixed, equivalent stereoisomers, per site.
Assay [3] deals with HTG4 (DNA, G4) AGGGTTAGGGTTAGGGTTAGGG
Put plainly: fluorescence titration, competitive binding model. Particulars: K+ 100 mM, 10 mM lithium cacodylate, pH 7.3, 32% and 96% ee samples, helicene 6 μM, per site.

Assay [4] relates to c-Myc (DNA, G4) TGAGGGTGGGTAGGGTGGGTAA
Put plainly: fluorescence titration, competitive binding model. The following applies: K+ 100 mM, 10 mM lithium cacodylate, pH 7.3, 32% and 96% ee samples, helicene 6 μM, per site.

For assay [5], the system named is BCL2 (BCL2Mid) (DNA, G4) GGGCGCGGGAGGAATTGGGCGGG
In words: fluorescence titration, competitive binding model. Particulars: K+ 100 mM, 10 mM lithium cacodylate, pH 7.3, 32% and 96% ee samples, helicene 6 μM, per site.

Consider `CCCN1c2ccc3ccccc3c2-c2c3c1cccc3[n+](CCC)c1ccc3ccccc3c21`, for which the DC50 in assay [1] is on record as 3.8 µM. Besides, the Kd in assay [2] (helicene 4 μM constant) was determined as 0.7 µM.

Consider `c1ccc2c3c(ccc2c1)N(CCN1CCOCC1)c1cccc2c1c-3c1c3ccccc3ccc1[n+]2CCN1CCOCC1`, for which the DC50 in assay [1] came to 6.0 µM. Besides, the Kd in assay [2] was 3.8 µM.

For the molecule `OCCN1c2ccc3ccccc3c2-c2c3c1cccc3[n+](CCO)c1ccc3ccccc3c21`, in assay [1], the DC50 is 4.4 µM. In addition, the Kd amounted to 4.7 µM in assay [2]; 6.2 µM in assay [3] (KM from simultaneous fit of 0%); 7.5 µM in assay [3] (KP from simultaneous fit of 0%); 3.8 µM in assay [4] (KM from simultaneous fit of 0%); 4.7 µM in assay [4] (KP from simultaneous fit of 0%); 5.1 µM in assay [5] (KM from simultaneous fit of 0%). Besides, the Kd in assay [5] (KP from simultaneous fit of 0%) amounted to 7.5 µM.

For orientation: Kd means the equilibrium constant for the complex coming apart.
